This is an account of results in patent US20020161018A1, “Enhancement of the potency and efficacy of local anesthetics with ibutilide and other methanesulfonamide drugs” (priority 2001, published 2002).

Molecules are shown by their SMILES. Entries after “also recorded” stand apart in the source; their conditions may differ. Counter-ions that a name gives are not always drawn. Marks after values point to notes of the source that are not given here.

Assay [1] relates to male ICR mice. As to the kind of experiment: Radiant heat tail-flick test after subcutaneous infiltration of the tail (infiltration anesthesia). The following applies: for % Bupivacaine ED50 (95% C.L.): bupivacaine mixed with vehicle or sotalol (10 nmoles), infiltrated in mouse tail. The class given is in vivo. Here is the method:
Methods of handling mice. Male ICR mice (Harlan Laboratories, Indianapolis, Ind.) weighing 27.0±0.4 g were housed 6 to a cage in animal care quarters maintained at 22±2 ° C. on a 12-h light-dark cycle. Food and water were available ad libitum. The mice were brought to a test room (22±2° C. , 12-h light-dark cycle), marked for identification and allowed 16-h to recover from transport and handling. The Institutional Animal Care and Use Committee at the Medical College of Virginia Campus of Virginia Commonwealth University approved all the procedures in this study.
The tail-flick test. The tail-flick test used to assess for infiltration anesthesia was developed by D'Amour and Smith (1941) and modified by Dewey et al (1970). The tail-flick device is designed to focus a light beam onto the site infiltrated with local anesthetic, without exposing non-injected tissue to the noxious radiant heat stimulus. The intensity was adjusted to yield baseline latencies of between 2- to 4-sec. A single baseline latency was obtained approximately 15-min before the mice were injected with drug. A 10-sec cut-off was used to prevent any potential tissue damage. In experiments testing for potential underlying infiltration anesthesia that was not observed with the higher heat stimulus, the intensity was reduced to yield baseline latencies of about 6-sec. A 12-sec cut-off was used in these experiments.
Subcutaneous infiltration of bupivacaine. Before infiltration of vehicle or drug, baseline tail-flick latencies were obtained by exposing the tail to noxious radiant heat at the site to be infiltrated with drug. The baseline average over the entire study was 3.1±0.1 sec. The mice were then restrained to allow us unencumbered access to the tail. A 26-gauge ⅝ needle was inserted approximately 1.0 to 1.3 cm longitudinally under the skin in the subcutaneous space in the dorsal aspect of the tail. The needle was attached to a 1-ml syringe (Becton Dickinson, Franklin Lakes, N.J. ) pre-filled with drug solution. A […] volume of drug solution was infiltrated, and the needle was left in place for 5-s to prevent leakage of injectate from the site after removing the needle. During injection, the solution dispersed around the circumference of the tail in a rostral-caudal direction of about 2- to 3-cm. A slight blanching of the skin that reversed within 1 to 2 min indicated the extent of the spread of solution. A non-toxic marking pen was used to mark the most rostral spread of solution. Tail-flick testing was conducted below the area marked on the tail. These methods are detailed in a previous report (Smith et al. 1997).
Experimental design. Sotalol was solubilized and then mixed with bupivacaine HCl for co-infiltration of the tail. The influence of increasing concentrations of sotalol on the ED50 dose of bupivacaine was also examined. Both baseline and test tail-flick latencies from each animal were converted into the percentage of maximum possible effect (% MPE) according to the method of Harris and Pierson (1964), which was calculated as: % MPE=[(test−baseline)/(10−baseline)]×100. The ordinate was % MPE, while the abscissa was expressed as the dose of sotalol. Complete bupivacaine dose-response curves were generated in the absence and presence of sotalol (10 nmole) for calculation of ED50 and potency ratio values. The ordinate was % MPE, while the abscissa was expressed as the % bupivacaine dose.
Statistical analyses: The Tail-Flick Latency (sec) values were analyzed with one factor ANOVA for experiments in which different concentrations of sotalol were tested with an ED50 dose of bupivacaine. A statistically significant F-value led to post hoc comparisons using the Tukey's test. The % MPE values for dose-response curves were analyzed in the following manner. ED50 values were calculated using least squares linear regression analysis of % MPE values followed by calculation of 95% confidence limits (C.L.) according to the method of Bliss (1967). […]
In general terms: Hot-plate and tail-flick tests time the reaction to a heat stimulus.

Assay [2] has as its system male ICR mice. The experiment in a line: Hot-plate paw-withdrawal test after popliteal (peri-sciatic nerve block) injection. The format is in vivo. The following applies: for local anesthesia of the drug alone in the presence of 1:200,000 epinephrine: 0.125% bupivacaine or ibutilide (3.9 nmoles), each with 1:200,000 epinephrine; for local anesthesia of the drug alone (paw-withdrawal latency): 0.5% bupivacaine or ibutilide (3.9 nmoles) with vehicle, 60-min time-course, or bupivacaine dose-response at 10-min; for % Bupivacaine ED50 (95% C.L.): tested 10-min later; for Potency ratio (95% C.L.): 10-min. The method, then: Animals: Male ICR mice (25-30 gm) were obtained from Harlan Sprague Dawley. The mice were housed in groups of four to six and kept on a 12-h light/12-h dark cycle. Mice were tested during the light cycle; and the original groupings were maintained (i.e., mice were not recombined into new groups or isolated) to decrease infighting and consequent stress that could confound the results. Behavioral Procedures: Following the procedure of Leszczynska and Kau (1992), each mouse was placed on a ¼inch wire mesh screen, which was then inverted; a mouse with no motor defects walks in a characteristic circular pattern, grasping the mesh with each paw and then letting go. Mice that could not walk normally at baseline were not used for testing. […] Baseline paw withdrawal latencies ranged between 2- to 3-sec. After collecting baseline data, the mice were injected with vehicle, ibutilide, or bupivacaine mixed with vehicle or ibutilide. At the appropriate times, motor scores and test paw withdrawal latencies were obtained. A 20-sec cut-off was employed to prevent tissue damage on the hot-plate test. Injection Procedures: Each mouse was injected with drug solution using a 30 gauge,½ inch needle attached to a 1 ml syringe (needle and syringe from Becton Dickinson). The animals were gently restrained, while the limb to be injected was extended to expose the popliteal space, which is behind the knee of the mouse. The needle was inserted in the popliteal space, and 0.05 ml of drug solutions injected. The nerve bundle of the sciatic nerve passes through the popliteal space. Thus, the limb and paw distal to the injection is effectively anesthetized. The motor and sensory tests were then repeated at 5-min intervals for a 1-h period. […] Some mice could place their paw on the screen, but could not grasp the screen with their digits; this was determined to be an intermediate phase. The motor block was determined to be resolved when the mouse could walk on the inverted screen using both the leg and paw. Sensory blockade was assessed by measuring in seconds, the time the bupivacaine-injected paw remained on hot-plate surface before withdrawing it. The test was terminated if the cut-off of 20-sec occurred during the test procedure. For time-course studies, two-factor repeated measures analysis of variance followed by the post hoc Tukey's test was used to assess for significant increases in paw withdrawal latencies compared to baseline. In addition, the effect of ibutilide to enhance bupivacaine was assessed, and compared with the appropriate controls at each time point during the 60-min test period. For dose-response curves, the data was converted to the percentage of maximum possible effect, which was calculated as: % MPE=[(Test−Baseline)/(20 −Baseline)]×100. […] The absence of overlapping confidence limits was used to indicate significant differences in ED50 values between dose-response curves. Potency-ratio values with 95% confidence limits were calculated by the method of Colquhoun (1971). Drugs: Sterile isotonic saline was used to dissolve and dilute drug solutions. Bupivacaine HCl was purchased from the MCV Hospitals Pharmacy (Winthrop Pharmaceuticals, NY, N.Y. ). To assure consistency, the same vial of bupivacaine was used for all injections involving bupivicaine. The concentration was varied by either diluting with normal saline, or by freeze-drying and then reconstituting the material with normal saline. The same vial of bupivacaine with 1:200,000 epinephrine was used for the second set of experiments. The epinephrine dose was adjusted by adding epinephrine to maintain a constant concentration of epinephrine 2.76×10^−5 M. Ibutilide fumarate was purchased from the MCV Hospitals Pharmacy (Pharmacia & Upjohn Company of Kalamazoo, Mich.). The concentration of ibutilide was held constant at 3.9 nanomoles (nmoles) per mouse. Enhancement of Bupivacaine HCl with Ibutilide. Experiments were conducted to determine whether ibutilide would enhance the local anesthetic effects of bupivacaine. […]

The mark [3] stands for this setting: bupivacaine containing 1:200,000 epinephrine mixed with vehicle or ibutilide (3.9 nmoles), popliteal space, hot-plate.
[4] abbreviates: hot-plate 56° C., bupivacaine mixed with vehicle or ibutilide (3.9 nmoles), injected in popliteal space, no epinephrine.

As for `CC(C)NCC(O)c1ccc(NS(C)(=O)=O)cc1.Cl` (stereo not shown) [Sotalol, N-[4-[1-hydroxy-2-[(1-methylethyl)amino]ethyl]phenyl]methanesulfonamide monohydrochloride], the “Potency ratio (95% C.L.)” value with male ICR mice [1] (bupivacaine + sotalol (10 nmoles) vs bupivacaine + vehicle, tail-flick, 30-min) was 2.7 (1.6 to 4.5). The “% Bupivacaine ED50 (95% C.L.)” value with male ICR mice [1] (tail-flick 30-min later) was 0.04% (0.03 to 0.06)**. Also, the “increase in potency of bupivacaine” value with male ICR mice [1] (in the presence of sotalol (10 nmoles), tail-flick, 30-min) was found to be 2.7 fold. In addition, the “enhancement of the anesthetic effects of an ED50 dose of bupivacaine (0.12%)” value in the assay with male ICR mice [1] (increasing doses of sotalol co-infiltrated, tail-flick 30-min later) is given as “enhanced in a dose-dependent fashion”. Also, the “anesthetic effect of the drug alone” value with male ICR mice [1] (sotalol alone, tail infiltration, tail-flick 30-min later, monohydrochloride) is “inactive; also recorded: no anesthetic effects”.
On to `CCCCN1CCCCC1C(=O)Nc1c(C)cccc1C` (stereo not shown) [bupivacaine], for which the “local anesthesia of the drug alone in the presence of 1:200,000 epinephrine” value with male ICR mice [2] (1-h time-course) was “elicited local anesthesia”. The “local anesthesia of the drug alone (paw-withdrawal latency)” value with male ICR mice [2] (no epinephrine) is on record as “mild level of anesthesia; also recorded: dose-dependent anesthesia”. Also, the “% Bupivacaine ED50 (95% C.L.)” value is listed as 0.31% (0.22 to 0.44) in the assay on male ICR mice [2] (setting [3]), 0.67% (0.59 to 0.77) with male ICR mice [2] (setting [4]) and 0.11% (0.08 to 0.15) in the assay on male ICR mice [1] (tail-flick 30-min later).
In the case of `CCCCCCCN(CC)CCCC(O)c1ccc(NS(C)(=O)=O)cc1` (racemic) [Ibutilide, (±) N-[4-[4-(Ethylheptylamino)-1-hydroxybutyl]phenyl]methanesulfonamide (E)-2-butenedioate (2:1) salt], the “local anesthesia of the drug alone in the presence of 1:200,000 epinephrine” value in the assay with male ICR mice [2] (1-h time-course) is listed as “failed to elicit any anesthetic effects”. Also, the “local anesthesia of the drug alone (paw-withdrawal latency)” value in the assay with male ICR mice [2] (no epinephrine) was “no anesthesia; also recorded: inactive”. The “Potency ratio (95% C.L.)” value was 6.8 (4.3 to 12.7)** with male ICR mice [2] (bupivacaine + 1:200,000 epinephrine + ibutilide (3.9 nmoles) vs vehicle control, hot-plate) and 2.8 (1.9 to 3.8)** with male ICR mice [2] (bupivacaine + ibutilide (3.9 nmoles) vs bupivacaine + vehicle, hot-plate, no epinephrine). For the same molecule, the “% Bupivacaine ED50 (95% C.L.)” value is reported as 0.05% (0.04 to 0.06)** with male ICR mice [2] (setting [3]) and 0.24% (0.19 to 0.30)** in the assay on male ICR mice [2] (setting [4]). In the assay with male ICR mice [2] (ibutilide 3.9 nmoles mixed with 0.5% bupivacaine, 60-min time-course, no epinephrine), the “enhancement of the local anesthetic effects of 0.5% bupivacaine” value is listed as “markedly enhanced; also recorded: significantly increased”. Besides, the “duration of enhancement of the local anesthetic effects of 0.5% bupivacaine” value in the assay on male ICR mice [2] (ibutilide 3.9 nmoles mixed with 0.5% bupivacaine, tested every 5 min for 1-h) is given as 35 min. Moreover, the “enhancement of the amount (efficacy) of 0.125% bupivacaine + 1:200,000 epinephrine” value in the assay on male ICR mice [2] (ibutilide 3.9 nmoles, 1-h time-course) is recorded as “greatly increased”. The “increase in relative potency of bupivacaine+1:200,000 epinephrine” value in the assay with male ICR mice [2] (in the presence of ibutilide (3.9 nmoles), hot-plate) was found to be 6.8 fold. Besides, the “increase in potency of bupivacaine” value in the assay on male ICR mice [2] (in the presence of ibutilide (3.9 nmoles), hot-plate, no epinephrine) is reported as 2.8 fold.
Consider `CNC[C@H](O)c1ccc(O)c(O)c1` [epinephrine], for which the “effect of 1:200,000 epinephrine on the efficacy of 0.125% bupivacaine” value with male ICR mice [2] (time-course experiments, hot-plate) is recorded as “increased”.
